We go through 1 compound from patent US6054441A, “Oxypurine nucleosides and their congeners, and acyl derivatives thereof, for improvement of hematopoiesis” (priority 1995, dated 2000).

Holding throughout (format): in vivo, Balb/C mice
In test [1] the test system is hematopoietic recovery after cyclophosphamide. Kind of test: Timing of administration, hematopoietic recovery after cyclophosphamide (Example 41). The following applies: day 7. The protocol: Cyclophosphamide (CP) (275 mg/kg, i.p.) was administered to 81 Balb/C female mice weighing approximately 20 grams each. Twenty-four hours later treatment was begun. Mice were given a 0.4 ml i.p. injection of either physiological saline (controls), Tween 80 (0.2%), or palmitoylguanosine (5 μmoles/mouse/day in 0.2% Tween 80). The timing of the treatments was varied within the groups. The control group was given saline on days 1-6. The mice receiving Tween 80 were treated either on days 1-4, 4-6 or 1-6. Palmitoylguanosine-treated mice were treated either on days 1-2, 1-4, 3-5, 4-6 or 1-6. If a group of mice received no Tween 80 or palmitoylguanosine on a given day, saline was administered by i.p. injection. Thus, there were 9 groups of 9 animals in all. On day 7 following CP administration all of the animals were bled and then sacrificed by cervical dislocation. Spleens were removed and weighed, and complete blood cell counts performed.

Test [2] concerns hematopoietic recovery after 5-fluorouracil. In words: Hematopoietic recovery after 5-fluorouracil (Example 42). The protocol: 5-fluorouracil (5-FU) (150 mg/kg, i.p.) was administered to forty Balb/C female mice weighing approximately 20 grams each. Twenty-four hours later and each day thereafter for a total of 8 days, mice were given a 0.4 ml i.p. injection of either physiological saline (controls) or 5'-O-palmitoylguanosine (2.5 μmoles/mouse/day in 0.2% Tween 80). On days 7 and 14 following 5-FU administration half of the animals from each group were bled and then were sacrificed by cervical dislocation. Spleens were removed and weighed, and complete blood cells counts performed.

Test [3] relates to hematopoiesis in normal mice. Kind of test: Hematopoiesis in normal mice (Example 56). The following applies: day 5; 2.6 μmoles/mouse, 4 days. The essentials:
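Normal female Balb/C mice (~20 g; 3 per group) received daily i.p. saline or acylated guanosine derivatives (2.6 μmoles/mouse) for 4 days. On day 5, animals were bled and sacrificed. Spleen weights, complete blood counts and femoral marrow differential counts were recorded.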

On to `CCCCCCCCCCCCCCCC(=O)OC[C@H]1O[C@@H](n2cnc3c(=O)[nH]c(N)nc32)[C@H](O)[C@@H]1O`, for which the spleen weight entry in test [1] (5 μmoles/mouse/day, any time period, vs saline) is recorded as “significantly greater spleen weight”; in test [1] (any period, vs Tween 80), “larger spleens”; in test [1] (treatment days 1-4 or 1-6, among periods) it was “greatest effect on spleen weight”; in test [2] (day 7, 2.5 μmoles/mouse/day i.p.), “slight, but statistically significant, increase in spleen weight”; in test [2] (day 14), “significantly heavier spleens”; in test [3] it was “significantly elevated”. In addition, the “total white blood cell (WBC) counts” value is recorded as “significantly greater” in test [1] (all periods except days 4-6, vs Tween 80); “significantly greater” in test [1] (each treatment period, vs saline); “greatest effect” in test [1] (treatment days 1-6, vs other periods). Besides, the lymphocyte counts result in test [1] (treatment days 1-2 or 1-6) is given as “elevated lymphocyte counts”. The total neutrophil counts entry in test [1] (treatment days 1-6) is on record as “greatest increase in total neutrophil counts”. For the same compound, in test [1] (treatment days 1 and 2, vs saline or Tween 80), the total neutrophils result is “significant increase in total neutrophils”. For the same compound, the other parameters entry in test [2] (day 7, vs control) is “No other differences”. The Lymphocytes entry in test [2] (day 14) was “significantly higher numbers”. In addition, in test [2] (day 14), the Neutrophils entry is “significantly higher numbers”. In addition, the Platelets entry in test [2] (day 14) is listed as “significantly higher numbers”. Besides, in test [2] (day 14), the total leukocytes entry is “significantly higher numbers”.
